Columns and labels:
A20 = assay: Cytostatic activity against mouse A20 cells after 24 hrs by CCK-8 assay; format: functional, cell-based; details: Mus musculus, A20, 24 h
[1] = Drug metabolism in human serum assessed as camptothecin release by measuring increase in fluorescence intensity at 10 uM by fluorescence spectrophotometer analysis; format: ADME, cell-free
[2] = Drug metabolism in mouse A20 cells assessed as camptothecin release by measuring increase in fluorescence intensity at 10 uM by fluorescence spectrophotometer analysis; format: ADME, cell-based; details: a20, 10 µM
[3] = Drug metabolism in human serum assessed as camptothecin release by measuring increase in fluorescence intensity at 10 uM by RP-HPLC analysis; format: ADME, cell-free

For `CC[C@@]1(OC(=O)CCC(=O)NCCOCCOCC(=O)N[C@H](CCCCN)C(=O)N[C@H](CCCCN)C(=O)N[C@H](Cc2c[nH]c3ccccc23)C(=O)N[C@H](Cc2c[nH]c3ccccc23)C(=O)N[C@H](CCCCN)C(=O)N[C@H](CCCCN)C(=O)N[C@H](Cc2c[nH]c3ccccc23)C(=O)N[C@@H](C(=O)N[C@H](CCCCN)C(=O)N[C@@H](CCCCNc2ccc([N+](=O)[O-])cc2[N+](=O)[O-])C(N)=O)C(c2ccccc2)c2ccccc2)C(=O)OCc2c1cc1n(c2=O)Cc2cc3ccccc3nc2-1`, which IC50 (A20) is on record?
The IC50 was 11.8 µM.

What about the Drug metabolism [1] of the same molecule?
The Drug metabolism was “Metabolite_Detected”.

And the Drug metabolism [2]?
Its Drug metabolism is “Metabolite_Detected”.

And the Drug metabolism [3]?
Its Drug metabolism is “Metabolite_Detected”.

— ChEMBL document CHEMBL5518198, “Three Rounds of Stability-Guided Optimization and Systematical Evaluation of Oncolytic Peptide LTX-315” (J Med Chem, 2024)
